Measured values: US20230382925A1, “MODULATORS OF CYSTIC FIBROSIS TRANSMEMBRANE CONDUCTANCE REGULATOR” (VERTEX PHARMACEUTICALS INCORPORATED, priority 2020, published 2023)
Where two headings read alike, the source gives them in different places.

Legend:
[1] = amide bond, 13-membered ring, DMF
CFTR = molecular target: T1, CFTR (Homo sapiens, UniProt P13569, DEL508-508); experiment: HBE assay: Ussing chamber assay of CFTR-mediated short-circuit currents (F508del/MF-HBE, with 1 μM Ivacaftor); assay type: cell-based; settings: F508del/MF-HBE cells, 18-24 hours, 20% human serum; for EC50: range of concentrations with 1 μM Ivacaftor; for HBE Max Activity: with 1 μM Ivacaftor, compared to known Vertex corrector with 18 μM Tezacaftor and 1 μM Ivacaftor; for HBE Activity at 10 μM: single fixed concentration of 10 μM with 1 μM Ivacaftor
T1 construct: human bronchial epithelial (HBE) cells derived from CF subjects heterozygous for F508del; endogenous in cells; host or cells: primary human bronchial epithelial cells from CF subjects (F508del/MF-HBE)
Protocol: 1. Ussing Chamber Assay of CFTR-mediated short-circuit currents
Ussing chamber experiments were performed using human bronchial epithelial (HBE) cells derived from CF subjects heterozygous for F508del and a minimal function CFTR mutation (F508del/MF-HBE) and cultured as previously described (Neuberger T, Burton B, Clark H, Van Goor F Methods Mol Biol 2011:741:39-54). After four days the apical media was removed, and the cells were grown at an air liquid interface for >14 days prior to use.
To isolate the CFTR-mediated short-circuit (ISC) current, F508del/MF-HBE grown on Costar® Snapwell™ cell culture inserts were mounted in an Ussing chamber and the transepithelial ISC was measured under voltage-clamp recording conditions (Vhold=0 mV) at 37° C. The basolateral solution contained (in mM) 145 NaCl, 0.83 K2HPO4, 3.3 KH2PO4, 1.2 MgCl2, 1.2 CaCl2), 10 Glucose, 10 HEPES (pH adjusted to 7.4 with NaOH) and the apical solution contained (in mM) 145 NaGluconate, 1.2 MgCl2, 1.2 CaCl2), 10 glucose, 10 HEPES (pH adjusted to 7.4 with NaOH) and 30 μM amiloride to block the epithelial sodium channel. Forskolin (20 μM) was added to the apical surface to activate CFTR, followed by apical addition of a CFTR inhibitor cocktail consisting of BPO, GlyH-101, and CFTR inhibitor 172 (each at 20 μM final assay concentration) to specifically isolate CFTR currents. The CFTR-mediated ISC (μA/cm^2) for each condition was determined from the peak forskolin response to the steady-state current following inhibition.
2. Identification of Corrector Compounds
The activity of the CFTR corrector compounds on the CFTR-mediated ISC was determined in Ussing chamber studies as described above. The F508del/MF-HBE cell cultures were either incubated with the corrector compounds at a range of concentrations in combination with 1 μM Ivacaftor or were incubated with the corrector compounds at a single fixed concentration of 10 μM in combination with 1 μM Ivacaftor for 18-24 hours at 37° C. and in the presence of 20% human serum. The concentration of corrector compounds with 1 μM Ivacaftor during the 18-24 hours incubations was kept constant throughout the Ussing chamber measurement of the CFTR-mediated ISC to ensure compounds were present throughout the entire experiment.

T1 sequence (P13569 with tags, fused parts or gaps DEL508-508): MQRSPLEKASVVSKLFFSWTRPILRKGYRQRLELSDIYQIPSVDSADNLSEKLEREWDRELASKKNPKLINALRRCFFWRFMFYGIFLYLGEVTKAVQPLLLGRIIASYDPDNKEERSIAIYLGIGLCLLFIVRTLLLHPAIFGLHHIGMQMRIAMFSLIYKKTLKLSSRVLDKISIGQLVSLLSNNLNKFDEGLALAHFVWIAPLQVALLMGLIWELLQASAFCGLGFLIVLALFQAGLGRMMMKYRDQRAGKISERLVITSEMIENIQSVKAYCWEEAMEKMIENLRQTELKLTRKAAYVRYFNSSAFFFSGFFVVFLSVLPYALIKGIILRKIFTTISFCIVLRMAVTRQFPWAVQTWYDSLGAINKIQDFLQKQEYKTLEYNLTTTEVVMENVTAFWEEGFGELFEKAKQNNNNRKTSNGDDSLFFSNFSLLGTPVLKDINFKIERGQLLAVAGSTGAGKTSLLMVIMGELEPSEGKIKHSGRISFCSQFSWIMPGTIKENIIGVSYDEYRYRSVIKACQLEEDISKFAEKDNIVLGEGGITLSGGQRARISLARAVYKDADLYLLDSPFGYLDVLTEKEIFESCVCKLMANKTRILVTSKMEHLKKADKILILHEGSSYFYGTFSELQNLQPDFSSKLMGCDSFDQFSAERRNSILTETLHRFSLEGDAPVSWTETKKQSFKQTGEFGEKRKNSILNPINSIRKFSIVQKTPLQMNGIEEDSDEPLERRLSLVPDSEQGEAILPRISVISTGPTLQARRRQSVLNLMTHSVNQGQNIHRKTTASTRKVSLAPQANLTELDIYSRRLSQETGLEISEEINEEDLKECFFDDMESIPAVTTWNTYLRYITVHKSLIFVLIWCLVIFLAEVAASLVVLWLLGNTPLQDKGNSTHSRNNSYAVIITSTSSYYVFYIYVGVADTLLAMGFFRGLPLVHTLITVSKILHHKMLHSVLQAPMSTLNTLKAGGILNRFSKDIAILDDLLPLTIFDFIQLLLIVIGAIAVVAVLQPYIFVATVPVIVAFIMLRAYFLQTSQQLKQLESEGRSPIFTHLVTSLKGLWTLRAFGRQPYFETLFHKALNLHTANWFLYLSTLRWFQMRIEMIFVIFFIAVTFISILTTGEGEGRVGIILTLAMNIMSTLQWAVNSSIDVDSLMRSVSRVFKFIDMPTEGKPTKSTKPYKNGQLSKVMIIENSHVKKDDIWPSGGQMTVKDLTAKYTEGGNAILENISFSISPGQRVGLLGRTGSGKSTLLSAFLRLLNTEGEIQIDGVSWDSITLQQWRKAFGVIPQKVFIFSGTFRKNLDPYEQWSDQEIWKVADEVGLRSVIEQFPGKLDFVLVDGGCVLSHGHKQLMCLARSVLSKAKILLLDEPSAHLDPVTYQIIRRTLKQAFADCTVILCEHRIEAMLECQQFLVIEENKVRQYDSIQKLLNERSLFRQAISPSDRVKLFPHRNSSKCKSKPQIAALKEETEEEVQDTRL

EC50 (CFTR)	HBE Max Activity (CFTR)	SMILES	also measured
< 1000 nM	+++ (+++ is >60%)	Cc1cccc(C)c1-c1cc2nc(n1)NS(=O)(=O)c1cccc(c1)C(=O)N([C@H]1C[C@@]3(CCCN(C(=O)CO)C3)C1)[C@H](CC(C)(C)C)CO2 (single isomer, unassigned) [Compound 144]	
< 1000 nM	+++ (+++ is >60%)	Cc1cccc(C)c1-c1cc2nc(n1)NS(=O)(=O)c1cccc(c1)C(=O)N([C@H]1C[C@@]3(CCCN(C(=O)CO)C3)C1)[C@H](CC(C)(C)C)CO2 (single isomer, unassigned) [Compound 145]	
< 1000 nM	+++ (+++ is >60%)	Cc1cccc(C)c1-c1cc2nc(n1)NS(=O)(=O)c1cccc(c1)C(=O)N(C1CC3(CC(N4CCOCC4)C3)C1)[C@H](CC(C)(C)C)CO2 (single isomer, unassigned) [Compound 432]	
< 1000 nM	+++ (+++ is >60%)	Cc1cccc(C)c1-c1cc2nc(n1)NS(=O)(=O)c1cccc(c1)C(=O)N(C1CC3(CCCN3C(=O)CO)C1)[C@H](CC(C)(C)C)CO2 (stereo in doubt) [Compound 205]	
< 1000 nM	+++ (+++ is >60%)	Cc1cccc(C)c1-c1cc2nc(n1)NS(=O)(=O)c1cccc(c1)C(=O)N(C1CC3(C1)CC(O)(Cc1ccccc1)C3)[C@H](CC(C)(C)C)CO2 (stereo in doubt) [Compound 430]	
3000 to 30000 nM	+++ (+++ is >60%)	Cc1cccc(C)c1-c1cc2nc(n1)NS(=O)(=O)c1cccc(c1)C(=O)N(c1cn[nH]c1)[C@H](CC(C)C)CO2 [Compound 99, (11R)-6-(2,6-Dimethylphenyl)-11-isobutyl-2,2-dioxo-12-(1H-pyrazol-4-yl)-9-oxa-2λ^6-thia-3,5,12,19-tetrazatricyclo[12.3.1.14,8]nonadeca-1(18),4(19),5,7,14,16-hexaen-13-one]	
< 1000 nM	+++ (+++ is >60%)	Cc1cccc(C)c1-c1cc2nc(n1)NS(=O)(=O)c1cccc(c1)C(=O)N(c1cn[nH]c1)[C@H](CC(C)(C)C)CO2 [Compound 185, (11R)-6-(2,6-Dimethylphenyl)-11-(2,2-dimethylpropyl)-2,2-dioxo-12-(1H-pyrazol-4-yl)-9-oxa-2λ^6-thia-3,5,12,19-tetrazatricyclo[12.3.1.14,8]nonadeca-1(18),4(19),5,7,14,16-hexaen-13-one]	
< 1000 nM	+++ (+++ is >60%)	Cc1cccc(C)c1-c1cc2nc(n1)NS(=O)(=O)c1cccc(c1)C(=O)N([C@H]1C[C@@]3(C[C@H](NCCC(F)(F)F)C3)C1)[C@H](CC1(C(F)(F)F)CC1)CO2 (stereo partly shown) [Compound 218]	
< 1000 nM	+++ (+++ is >60%)	Cc1cccc(C)c1-c1cc2nc(n1)NS(=O)(=O)c1cccc(c1)C(=O)N(C1CC3(CCN(c4ccccn4)CC3)C1)[C@H](CC(C)(C)C)CO2 [Compound 350]	
1000 to 3000 nM	+++ (+++ is >60%)	Cc1cccc(C)c1-c1cc2nc(n1)NS(=O)(=O)c1cccc(c1)C(=O)N(c1cnn(CC(N)=O)c1)[C@H](CC(C)(C)C)CO2 [Compound 426]	
< 1000 nM	+++ (+++ is >60%)	Cc1cccc(C)c1-c1cc2nc(n1)NS(=O)(=O)c1cccc(c1)C(=O)N(c1cnn(CC(=O)OC(C)(C)C)c1)[C@H](CC(C)C)CO2 [Compound 429]	
< 1000 nM	+++ (+++ is >60%)	Cc1cccc(C)c1-c1cc2nc(n1)NS(=O)(=O)c1cccc(c1)C(=O)N(C1CC3(CC(N4CCOCC4)C3)C1)[C@H](CC(C)(C)C)CO2 (stereo partly shown) [Compound 433]	

More lines, now with the values behind:

SMILES	EC50 (CFTR)	HBE Max Activity (CFTR)	also measured
COC(=O)C1CC2(C1)CC(N1C(=O)c3cccc(c3)S(=O)(=O)Nc3nc(cc(-c4c(C)cccc4C)n3)OC[C@H]1CC1(C(F)(F)F)CC1)C2 (stereo partly shown)			ring closure, yield after HPLC ([1]; from COC(=O)C1CC2(CC(N[C@@H](COc3cc(-c4c(C)cccc4C)nc(NS(=O)(=O)c4cccc(C(=O)O)c4)n3)CC3(C(F)(F)F)CC3)C2)C1, HATU/TEA, 25.0 °C, 16.0 h, 2 steps): 32%
COC1C[C@@H]2CC(N3C(=O)c4cccc(c4)S(=O)(=O)Nc4nc(cc(-c5c(C)cccc5C)n4)OC[C@H]3CC(C)C)C[C@@H]2C1 (stereo partly shown)			ring closure, yield after HPLC ([1]; from COC1C[C@H]2CC(N[C@@H](COc3cc(-c4c(C)cccc4C)nc(NS(=O)(=O)c4cccc(C(=O)O)c4)n3)CC(C)C)C[C@H]2C1, COMU/DIEA, 29.7 mM, 14.0 h): 30%
Cc1cccc(C)c1-c1cc2nc(n1)NS(=O)(=O)c1cccc(c1)C(=O)N(C1CC3(CCCCN3C(=O)CO)C1)[C@H](CC(C)(C)C)CO2 (stereo in doubt) [Compound 203]			HBE Activity at 10 μM (CFTR): +++ (+++ is >60%)
Cc1cccc(C)c1-c1cc2nc(n1)NS(=O)(=O)c1cccc(c1)C(=O)N(C1CC3(CCCCN3C(=O)CO)C1)[C@H](CC(C)(C)C)CO2 (stereo in doubt) [Compound 204]			HBE Activity at 10 μM (CFTR): +++ (+++ is >60%)
Cc1cccc(C)c1-c1cc2nc(n1)NS(=O)(=O)c1cccc(c1)C(=O)N(C1CC3(CCCN3C(=O)CO)C1)[C@H](CC(C)(C)C)CO2 (stereo in doubt) [Compound 206]	< 1000 nM	+++ (+++ is >60%)	
Cc1cccc(C)c1-c1cc2nc(n1)NS(=O)(=O)c1cccc(c1)C(=O)N([C@H]1CC3(C[C@H](N(C)CCC(F)(F)F)C3)C1)[C@H](CC1(C(F)(F)F)CC1)CO2 (stereo in doubt) [Compound 219]			HBE Activity at 10 μM (CFTR): +++ (+++ is >60%)
Cc1cccc(C)c1-c1cc2nc(n1)NS(=O)(=O)c1cccc(c1)C(=O)N([C@H]1C[C@@]3(C[C@H](NCC(F)(F)F)C3)C1)[C@H](CC1(C(F)(F)F)CC1)CO2 (stereo in doubt) [Compound 220]	< 1000 nM	+++ (+++ is >60%)	
Cc1cccc(CO)c1-c1cc2nc(n1)NS(=O)(=O)c1cccc(c1)C(=O)N([C@H]1CC3(C[C@H](NC(=O)OC(C)C)C3)C1)[C@H](CC(C)(C)C)CO2 (stereo in doubt) [Compound 402]			HBE Activity at 10 μM (CFTR): ++ (++ is 30-60%)
Cc1cccc(CO)c1-c1cc2nc(n1)NS(=O)(=O)c1cccc(c1)C(=O)N([C@H]1CC3(C[C@H](NC(=O)OC(C)C)C3)C1)[C@H](CC(C)(C)C)CO2 (stereo in doubt) [Compound 403]			HBE Activity at 10 μM (CFTR): ++ (++ is 30-60%)
Cc1cccc(C)c1-c1cc2nc(n1)NS(=O)(=O)c1cccc(c1)C(=O)N(C1CC3(C1)CC(O)(Cc1ccccc1)C3)[C@H](CC(C)(C)C)CO2 (stereo in doubt) [Compound 431]	< 1000 nM	+++ (+++ is >60%)	
Cc1cccc(C)c1-c1cc2nc(n1)NS(=O)(=O)c1cccc(c1)C(=O)N(C1CC(N3C[C@@H](C)O[C@@H](C)C3)C1)[C@H](CC(C)(C)C)CO2 (stereo in doubt) [Compound 434]			HBE Activity at 10 μM (CFTR): +++ (+++ is >60%)
Cc1cccc(C)c1-c1cc2nc(n1)NS(=O)(=O)c1cccc(c1)C(=O)N([C@H]1C[C@@H](N3CCOCC3)C1)[C@H](CC(C)(C)C)CO2 [Compound 178, (11R)-6-(2,6-Dimethylphenyl)-11-(2,2-dimethylpropyl)-12-(3-morpholinocyclobutyl)-2,2-dioxo-9-oxa-2λ^6-thia-3,5,12,19-tetrazatricyclo[12.3.1.14,8]nonadeca-1(18),4(19),5,7,14,16-hexaen-13-one]	< 1000 nM	+++ (+++ is >60%)	
Cc1cccc(CO)c1-c1cc2nc(n1)NS(=O)(=O)c1cccc(c1)C(=O)N(C1CC3(CC(NC(=O)OC(C)C)C3)C1)[C@H](CC(C)(C)C)CO2 (stereo partly shown) [Compound 209]			HBE Activity at 10 μM (CFTR): ++ (++ is 30-60%)
Cc1cccc(C)c1-c1cc2nc(n1)NS(=O)(=O)c1cccc(c1)C(=O)N([C@H]1C[C@@]3(C[C@H](N(C)CC(F)(F)F)C3)C1)[C@H](CC1(C(F)(F)F)CC1)CO2 (stereo partly shown) [Compound 221]	< 1000 nM	+++ (+++ is >60%)	
Cc1cccc(C)c1-c1cc2nc(n1)NS(=O)(=O)c1cccc(c1)C(=O)N(c1cnn(CC(=O)OC(C)(C)C)c1)[C@H](CC(C)(C)C)CO2 [Compound 427]	< 1000 nM	+++ (+++ is >60%)	
Cc1cccc(C)c1-c1cc2nc(n1)NS(=O)(=O)c1cccc(c1)C(=O)N(C1CC3(CCN(C)CC3)C1)[C@@H]1CN(C3CC4(CCCCC4)C3)C[C@H]1O2 (stereo partly shown) [Compound 473]			HBE Activity at 10 μM (CFTR): +++ (+++ is >60%)
